Experimental data: patent US5801174A, “Fused indole and quinoxaline derivatives, their preparation and use” (Neurosearch A/S, priority 1994, dated 1998)

Key:
[1] = target: AMPA receptor; assay: AMPA receptor binding affinity (in vitro); conditions: Table 1
Excerpt: In Vitro activity (receptor affinity):
(§1) The test results obtained by testing the compounds of the invention for their in-vitro AMPA receptor affinity and their ability to inhibit GABA release are presented in the following table: […]

[2] = system: cultured cerebral cortex neurons; assay: 3H-GABA release, cultured cerebral cortex neurons; format: cell-based; conditions: Cerebral cortex neuron; inhibition of stimulated 3H-GABA release, mouse cortical neurons, Table 1
Excerpt: The compounds of the invention have also been tested for their ability to inhibit GABA release from cultured cerebral cortex neurons in the following test:
^3 H-GABA Release, Cortical Neurons
Background: Neurons which express receptors for excitatory amino acids can be depolarized by such compounds and this depolarization will ultimately lead to a release of transmitter substance from the neurons. Cultured neurons obtained from 15-day-old mouse embryo cortex are mainly GABAergic and express all types of excitatory amino acid receptors. This means that they can be stimulated by high potassium or by the excitatory amino acids, NMDA, AMPA and kainate to release their neurotransmitter GABA.
^3 H-GABA may be used to label the GABA transmitter pool in the neurons and the release of ^3 H-GABA from the neurons may be used as a simple functional model for studies of the effects of excitatory amino acids and their antagonists.
Method: Cerebral cortices of 16-day-old mouse embryos are chopped in 0.4×0.4 mm cubes. The tissue is dissociated by mild trypsinization (0.1% (wt/vol) trypsin, 37° C., 15 min) and subsequently inoculated into poly-L-lysine-coated 3-cm Petri dishes containing a slightly modified DMEM (24.5 mM KCI, 30 mM glucose) supplemented with p-aminobenzoate (7 μM), insulin (100 mU/L) and 10% (vol/vol) horse serum. Cells are maintained in culture for 5-7 days with the addition of the antimitotic agent cytosine arbinoside (40 μM) from day 2 in vitro to prevent glial profileration. For further details and references, see Drejer et al. Exp. Brain Res. 47, 259 (1982).
Release experiments are performed using the model described by Drejer et al. Life Sci. 38, 2077 (1986). Cerebral cortex neurons cultured in Petri dishes (30 mm) are added 100 μM γ-vinyl-GABA one hour before the experiment in order to inhibit degradation of GABA in the neurons. 30 min before the experiment 5 μCi ^3 H-GABA is added to each culture and after this preloading period the cell monolayer at the bottom of the dish is covered with a piece of nylon mesh to protect the cells against mechanical damage and to facilitate dispersion of medium over the cell layer. The preloading medium is removed and the Petri dishes are placed in a superfusion system consisting of a peristaltic pump continously delivering thermostated 37° C. superfusion medium HEPES buffered saline (HBS): 10 mM HEPES, 135 mM NaCl, 5 mM KCI, 0.6 mM MgSO4, 1.0 mM CaCl2 and 6 mM D-glucose; pH 7.4) from a reservoir to the top of the slightly tilted Petri dish. The medium is continously collected from the lower part of the dish and delivered to a fraction collector. Initially, the cells are superfused with HBS for 15 min (flow rate 2 ml/min). Then the cells are stimulated for 30 sec every 4 min by changing the superfusion medium from HBS to a corresponding medium containing […].
Test subtances are dissolved in 50% DMSO, 48% ethanol. The final DMSO and ethanol concentration in the assay must not exceed 0.1%.
The stimulated release of ^3 H-GABA (cpm) are corrected for the mean basal release(cpm) before and after stimulation.
The stimulated release in the presence of antagonists are expressed relative to the stimulated release and the IC50 value for the antagonist is calculated (the concentration (μM) of the test substance which inhibit 50% of the stimulated ^3 H-GABA release).
as §1

CN1CCc2c(-c3ccc(S(=O)(=O)N4CCN(Cc5ccc6c(c5)OCO6)CC4)cc3)cc3c(c2C1)NC(=O)C3=NO [8-methyl-5-(4-(4-(3,4-methylenedioxybenzyl)-piperazinosulfonyl)phenyl)-6,7,8,9-tetrahydro-1H-pyrrolo[3,2-h]-isoquinoline-2,3-dione-3-oxime]
IC50 [1]: 130 nM
IC50 [2]: 500 nM

CN1CCc2c(-c3ccc(S(=O)(=O)N(CCO)CCO)cc3)cc3c(c2C1)NC(=O)C3=NO [8-methyl-5-(4-(N,N-bis(2-hydroxyethyl)sulphamoyl)-phenyl)-6,7,8,9-tetrahydro-1H-pyrrolo[3,2-h]-isoquinoline-2,3-dione-3-oxime]
IC50 [1]: 50 nM
IC50 [2]: 130 nM

CN1CCc2c(-c3ccc(S(=O)(=O)N4CCN(CCO)CC4)cc3)cc3c(c2C1)NC(=O)C3=NO [8-methyl-5-(4-(4-(2-hydroxyethyl)piperazinosulfonyl)-phenyl)-6,7,8,9-tetrahydro-1H-pyrrolo[3,2-h]-isoquinoline-2,3-dione-3-oxime]
IC50 [1]: 19 nM
IC50 [2]: 100 nM

CON=C1C(=O)Nc2c1cc(-c1ccc(S(=O)(=O)N3CCOCC3)cc1)c1c2CCN(C)C1 [7-methyl-5-(4-(morpholinosulfonyl)phenyl)-6,7,8,9-tetrahydro-1H-pyrrolo[2,3-f]isoquinoline-2,3-dione-3-O-methyloxime]
IC50 [1]: 220 nM
IC50 [2]: 1600 nM

CN1CCc2c(-c3ccc(S(=O)(=O)N4CCN(c5ccc(Cl)cc5)CC4)cc3)cc3c(c2C1)NC(=O)C3=NO [8-methyl-5-(4-(4-(4-chlorophenyl)piperazinosulfonyl)-phenyl)-6,7,8,9-tetrahydro-1H-pyrrolo[3,2-h]-isoquinoline-2,3-dione-3-oxime]
IC50 [1]: 68 nM
IC50 [2]: 877 nM

CN1CCc2c(-c3ccc(S(=O)(=O)N(C)C)cc3)cc3c(c2C1)NC(=O)C3=NOC(C)(C)C [8-methyl-5-(4-(N,N-dimethylsulphamoyl)-phenyl)-6,7,8,9-tetrahydro-1H-pyrrolo[3,2-h]-isoquinoline-2,3-dione-3-O-t-butyloxime]
IC50 [1]: 470 nM
IC50 [2]: 5500 nM

CN1CCc2c(-c3ccc(S(=O)(=O)N4CCCCC4)cc3)cc3c(c2C1)NC(=O)C3=NO [8-methyl-5-(4-(piperidinosulfonyl)-phenyl)-6,7,8,9-tetrahydro-1H-pyrrolo[3,2-h]-isoquinoline-2,3-dione-3-oxime]
IC50 [1]: 27 nM
IC50 [2]: 240 nM

CCN1Cc2c(-c3ccc(S(=O)(=O)N(C)C)cc3)cc3c(c2C1)NC(=O)C3=NO [7-ethyl-5-(4-(N,N-dimethylsulphamoyl)phenyl)-1,6,7,8-tetrahydrobenzo[1,2-b:3,4-c]dipyrrole-2,3-dione-3-oxime]
IC50 [1]: 1600 nM
IC50 [2]: 4500 nM

CCOC(=O)c1ccc(-c2cc3c(c4c2CCN(C)C4)NC(=O)C3=NO)cc1 [8-methyl-5-(4-(ethoxycarbonyl)phenyl)-6,7,8,9 tetrahydro-1H-pyrrolo[3,2-h]-isoquinoline-2,3-dione-3-oxime]
IC50 [1]: 100 nM
IC50 [2]: 3700 nM

CCOC(=O)CNS(=O)(=O)c1ccc(-c2cc3c(c4c2CCN(C)C4)NC(=O)C3=NO)cc1 [8-methyl-5-(4-(N-(ethoxycarbonylmethyl)-sulphamoyl)phenyl)-6,7,8,9-tetrahydro-1H-pyrrolo[3,2-h]isoquinoline-2,3-dione-3-oxime]
IC50 [1]: 34 nM
IC50 [2]: 340 nM

CN(C)CCN(C)S(=O)(=O)c1ccc(-c2cc3c(c4c2CCN(C)C4)NC(=O)C3=NO)cc1 [8-methyl-5-(4-(N-methyl-N-(2-(N,N-dimethylamino)-ethyl)sulphamoyl)-phenyl)-6,7,8,9-tetrahydro-1H-pyrrolo[3,2-h]-isoquinoline-2,3-dione-3-oxime]
IC50 [1]: 190 nM
IC50 [2]: 310 nM

CCN(CC)CCN(CCN(CC)CC)S(=O)(=O)c1ccc(-c2cc3c(c4c2CCN(C)C4)NC(=O)C3=NO)cc1 [8-methyl-5-(4-(N,N-di(2-(N,N-diethylamino)ethyl)-sulphamoyl)-phenyl)-6,7,8,9-tetrahydro-1H-pyrrolo[3,2-h]-isoquinoline-2,3-dione-3-oxime]
IC50 [1]: 38 nM
IC50 [2]: 450 nM

CCN1Cc2c(-c3ccc(S(=O)(=O)N4CCOCC4)cc3)cc3c(c2C1)NC(=O)C3=NO [7-ethyl-5-(4-(morpholinosulfonyl)phenyl)-1,6,7,8-tetrahydrobenzo[1,2-b:3,4-c]dipyrrole-2,3-dione-3-oxime]
IC50 [1]: 140 nM
IC50 [2]: 500 nM

CN1CCc2c(-c3ccc(S(=O)(=O)N(Cc4ccccc4)Cc4ccccc4)cc3)cc3c(c2C1)NC(=O)C3=NO [8-methyl-5-(4-(N,N-dibenzylsulphamoyl)-phenyl)-6,7,8,9-tetrahydro-1H-pyrrolo[3,2-h]-isoquinoline-2,3-dione-3-oxime]
IC50 [1]: 540 nM
IC50 [2]: 1900 nM

CN1CCc2c(c(-c3ccc(S(=O)(=O)N4CCOCC4)cc3)cc3c2NC(=O)C3=NO)C1 [7-methyl-5-(4-(morpholinosulfonyl)phenyl)-6,7,8,9-tetrahydro-1H-pyrrolo[2,3-f]isoquinoline-2,3-dione-3-oxime]
IC50 [1]: 110 nM
IC50 [2]: 250 nM

CN1CCc2c(-c3ccc(S(=O)(=O)Nc4ccccc4)cc3)cc3c(c2C1)NC(=O)C3=NO [8-methyl-5-(4-(N-phenylsulphamoyl)-phenyl)-6,7,8,9-tetrahydro-1H-pyrrolo[3,2-h]-isoquinoline-2,3-dione-3-oxime]
IC50 [1]: 66 nM
IC50 [2]: 380 nM

CCN(CC)S(=O)(=O)c1ccc(-c2cc3c(c4c2CCN(C)C4)NC(=O)C3=NO)cc1 [8-methyl-5-(4-(N,N-diethylsulphamoyl)-phenyl)-6,7,8,9-tetrahydro-1H-pyrrolo[3,2-h]-isoquinoline-2,3-dione-3-oxime]
IC50 [1]: 18 nM
IC50 [2]: 160 nM

CN1CCc2c(-c3ccc(S(N)(=O)=O)cc3)cc3c(c2C1)NC(=O)C3=NO [8-methyl-5-(4-(sulphamoyl)phenyl)-6,7,8,9-tetrahydro-1H-pyrrolo[3,2-h]isoquinoline-2,3-dione-3-oxime]
IC50 [1]: 25 nM
IC50 [2]: 270 nM

CN1CCc2c(-c3ccc(S(=O)(=O)N4CCOCC4)cc3)cc3c(c2C1)NC(=O)C3=NO [8-methyl-5-(4-(morpholinosulfonyl)phenyl)-6,7,8,9-tetrahydro-1H-pyrrolo[3,2-h]-isoquinoline-2,3-dione-3-oxime]
IC50 [1]: 40 nM
IC50 [2]: 30 nM

CN1CCc2c(-c3ccc(S(=O)(=O)N4CCOCC4)cc3)cc3c(c2C1)NC(=O)C3=O [8-methyl-5-(4-(morpholinosulfonyl)-phenyl)-6,7,8,9-tetrahydro-1H-pyrrolo[3,2-h]-isoquinoline-2,3-dione]
IC50 [1]: 820 nM
IC50 [2]: 2160 nM

CN1CCc2c(-c3ccc(C(=O)N(C)C)cc3)cc3c(c2C1)NC(=O)C3=NO [8-methyl-5-(4-(N,N-dimethylcarbamoyl)-phenyl)-6,7,8,9-tetrahydro-1H-pyrrolo[3,2-h]-isoquinoline-2,3-dione-3-oxime]
IC50 [1]: 140 nM
IC50 [2]: 190 nM

CON=C1C(=O)Nc2c1cc(-c1ccc(S(=O)(=O)N(C)C)cc1)c1c2CN(C)CC1 [8-methyl-5-(4-(N,N-dimethylsulphamoyl)-phenyl)-6,7,8,9-tetrahydro-1H-pyrrolo[3,2-h]-isoquinoline-2,3-dione-3-O-methyloxime]
IC50 [1]: 200 nM
IC50 [2]: 1700 nM

CN1CCc2c(-c3ccc(S(=O)(=O)NC(C)(C)C)cc3)cc3c(c2C1)NC(=O)C3=NO [8-methyl-5-(4-(N-t-butylsulphamoyl)-phenyl)-6,7,8,9-tetrahydro-1H-pyrrolo[3,2-h]-isoquinoline-2,3-dione-3-oxime]
IC50 [1]: 30 nM
IC50 [2]: 240 nM
